Results taken from patent publication US20250312292A1, “PHARMACEUTICAL COMPOSITION FOR USE IN THERAPEUTIC OR PROPHYLACTIC METHOD FOR KIDNEY INJURY, COMBINED MEDICINE CONTAINING SAID PHARMACEUTICAL COMPOSITION, AND CCBL1 INHIBITOR” (FUJITA ACADEMY, priority 2022, published 2025).
Where two headings read alike, the source gives them in different places.

Key:
recombinant CCBL1 (KAT1) = molecular target: T1, recombinant CCBL1 (KAT1) (Homo sapiens, UniProt Q16773); assay: Screening of KAT1 (CCBL1) inhibitory activity, L-kynurenine fluorescence assay; type: biochemical; settings: for inhibition at 10 µM: 10 μM of the compound, 1 mM L-kynurenine, room temperature 2 hours; for CCBL1 (KAT1) inhibitory activity, in words: screening result
T1 construct: made in house; host or cells: Sf9 insect cells (baculovirus)
T1 sequence (Q16773 1-422): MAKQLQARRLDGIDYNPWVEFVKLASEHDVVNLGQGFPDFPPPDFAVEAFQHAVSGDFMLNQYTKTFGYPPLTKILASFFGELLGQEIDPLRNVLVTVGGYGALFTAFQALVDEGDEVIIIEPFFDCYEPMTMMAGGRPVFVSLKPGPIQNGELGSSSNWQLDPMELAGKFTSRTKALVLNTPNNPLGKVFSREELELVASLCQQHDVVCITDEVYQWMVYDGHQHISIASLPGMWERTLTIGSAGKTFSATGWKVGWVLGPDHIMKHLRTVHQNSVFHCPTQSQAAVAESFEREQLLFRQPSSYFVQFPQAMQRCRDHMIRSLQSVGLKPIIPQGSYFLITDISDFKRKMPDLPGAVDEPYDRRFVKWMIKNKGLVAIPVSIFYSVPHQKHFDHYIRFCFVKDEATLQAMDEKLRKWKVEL
Procedure: (§1) Sf9 cells infected with baculovirus containing human CCBL1 gene were centrifuged and thereby pelletized and dissolved in 50 mM phosphate buffer solution (pH 8.0) containing 300 mM NaCl and 10 mM imidazole. After ultrasonic treatment, the cell lysate was centrifuged at 10,000×g at 4° C. for 20 minutes, and recombinant CCBL1 in the supernatant was added to a pre-equalized Ni-NTA resin (QIAGEN). An enzyme/resin composite was transferred to a column and washed with a buffer solution containing 300 mM NaCl and 20 mM imidazole in 50 mM phosphate buffer solution (pH 8.0), and recombinant CCBL1 was eluted with a buffer solution (pH 8.0) containing 300 mM NaCl, 250 mM imidazole, and 50 mM phosphate. The enzyme fraction was pooled based on the purity determined by using SDS-PAGE and desalted by using a PD-10 column (GE Healthcare, U.K.)
The CCBL1 inhibitory compound was obtained by screening KAT1 inhibitory activity of compounds included in a compound library (The Spectrum Collection) provided by Center for Supporting Drug Discovery and Life Science Research in Graduate School of Pharmaceutical Sciences, Osaka University. Here, 10 ng/μl recombinant CCBL, 1 mM L-kynurenine, 1 mM sodium pyruvate, 100 μM PLP, and 0.005% Tween 20 mixture solution contained in 150 mM of 2-amino-2-methyl-1-propanol buffer solution were added to a 384-well plate containing 10 μM of the compound and then incubated at room temperature for 2 hours. Subsequently, 20 μL of 300 mM zinc acetate solution was added thereto, and the fluorescent intensities at an excitation wavelength 340 nm and a fluorescent wavelength 460 nm were measured by Infinite M1000 plate reader (TECAN). The Control without containing the compound was defined as reaction 100%, the Background without containing any enzyme was defined as reaction 0%, and the inhibitory activity of the compound (Sample) was calculated based on the following equation.

recombinant human CCBL1 = molecular target: T2, recombinant human CCBL1 (Homo sapiens, UniProt Q16773); assay: Inhibition of CCBL1 beta-elimination activity by compound; type: biochemical; settings: recombinant human CCBL1, compound at different concentrations
T2 construct: made in house; host or cells: Sf9 insect cells (baculovirus)
T2 sequence (Q16773 1-422): T1 sequence (Q16773 1-422)
Procedure: as §1
The beta-elimination activity of CCBL1 was measured in accordance with a method described in “Arun Kumar Selvam et al., “A Novel Assay Method to Determine the—Elimination of Se-Methylselenocysteine to Monomethylselenol by Kynurenine Amino transferase 1” Antioxidants 2020, 9, 139; doi: 10. 3390/antiox 9020139″. […] Subsequently, 70 μL of the assay mixture was incubated at 37° C. for 10 minutes, 130 μL of 1M NaOH was added thereto, and the increase in the absorbance at 520 nm was measured by using a spectrophotometer (Nivo Multiplate Microplate Reader, PerkinElmer). […]

[1] = system: cisplatin-induced kidney injury model mice; assay: Cisplatin-induced kidney injury model mouse; settings: for BUN level in serum / Cre level in serum: compound 25, 50, 100 mg/kg i.p. 30 minutes before cisplatin 20 mg/kg, third day
Procedure: (§5) To create cisplatin-induced kidney injury model mice, cisplatin (20 mg/kg) was administered once by intraperitoneal administration to male C57BL/6J mice with the body weight of 20 to 25 g (Japan SLC). To examine the kidney protection effect (prophylactic effect) of the compounds expressed by formulae (2) and (3) (hereafter, simply referred to as “compound”) on a cisplatin-induced kidney injury, the compound was intraperitoneally administered with doses of 0, 25, 50, and 100 mg/kg 30 minutes before the cisplatin injection. The mice were sacrificed on the third day after the cisplatin injection. Samples of the blood and the kidneys were taken and preserved at −80° C. for further analysis.
(§6) The levels of creatinine (Cre) and blood urea nitrogen (BUN) in serum were measured by using a fully automated blood biochemistry analyzer (BioMajesty JCA-BM9130) in accordance with a manufacturer-instructed method.

[2] = system: tumor allograft model mice; assay: Tumor allograft model mouse (Lewis lung cancer cells); type: in vivo
Procedure: Tumors were measured by using vernier calipers, and tumor volumes were calculated as a product of length by width by width. After the tumor reached a certain size, the compound (100 mg/kg) was intraperitoneally administered 30 minutes before the intraperitoneal administration of 20 mg/kg of cisplatin.
Renal tubular damage was scored as follows.

[3] = system: CCBL1 overexpressed LLC/PK1 cells; assay: Cell viability assay, cisplatin-induced renal tubular cell death; type: cell-based; settings: 24 hours
Procedure: (§2) LLC/PK1 (pig kidney epithelium), LLC (Lewis lung cancer), and MDA-MB-231 (human breast cancer) cells were obtained from JCRB cell bank (Japan). The LLC/PK1 cells were transfected by a human CCBL1 expression vector, CCBL1 stable overexpression cells were cloned into CCBL1 overexpressed LLC/PK1 cells, which were used for further experiments. The CCBL1 overexpressed LLC/PK1 cells were proliferated in 199/EBSS culture medium (10% FBS, 1% penicillin/streptomycin, and 400 μg/ml of G418), and LLC and MDA-MB-231 cells were proliferated at 37° C. under humidified atmosphere of 5% CO2 in DMEM culture medium (10% FBS and 1% penicillin/streptomycin).
(§3) A cell viability assay kit was used to measure the cell viability. […] The absorbance at 490 nm was measured by using a microplate reader (Molecular Devices, USA). The cell viability was calculated as a value of the absorbance of treated cells relative to the absorbance of untreated cells.
(§4) To examine whether or not the compound X prevents cisplatin-induced renal uriniferous tubular cell death, CCBL1 overexpressed LLC/PK1 cells were treated with different concentrations of cisplatin and the compound X for 24 hours, and the cell viability was evaluated by cell proliferation assay. The expression amount of human CCBL1 in LLC-PK1 cells was determined by immunoblotting. […]

[4] = system: human breast cancer cell lines (MDA-MB-231 cells); assay: Cell viability assay, cisplatin-induced tumor cell death; type: cell-based; settings: with cisplatin, 24 hours
Procedure: as §2, §3, §4

[5] = system: Lewis lung cancer cell lines (LLC cells); assay: as above; type: cell-based; settings: with cisplatin, 24 hours
Procedure: as §2, §3, §4

[6] = system: cisplatin-induced kidney injury model mice; settings: mouse, in vivo
Procedure: as §5, §6

[7] = both cisplatin and compound administered
[8] = compound plus cisplatin, tumor-bearing mice
[9] = compound and cisplatin versus cisplatin alone
[10] = cisplatin 20 mg/kg i.p. alone, tumor-bearing mice

## O=C(CCc1ccc(O)cc1)c1c(O)cc(O)cc1O [PHLORETIN, 3-(4-hydroxyphenyl)-1-(2,4,6-trihydroxyphenyl) propan-1-one]
Recombinant CCBL1 (KAT1)
  inhibition at 10 µM: 83%
  CCBL1 (KAT1) inhibitory activity, in words: has a CCBL1 inhibitory function

## CCC(=O)c1c(O)cc(O)cc1O [FLOPROPIONE, 1-(2,4,6-trihydroxyphenyl) propan-1-one]
Recombinant human CCBL1
  inhibitory activity to CCBL1 β elimination activity: inhibited by flopropione in a concentration dependent manner
[1]
  BUN level in serum: reduced Cre and BUN in a dose dependent manner
  Cre level in serum: reduced Cre and BUN in a dose dependent manner
[1]; compound alone, no cisplatin
  BUN level in serum, compound administered alone: no change was found in the Cre and BUN levels
  Cre level in serum, compound administered alone: no change was found in the Cre and BUN levels
Recombinant CCBL1 (KAT1)
  inhibition at 10 µM: 71.9%

## CC(=O)c1c(O)cc(O)cc1O [compound X, 2,4,6-trihydroxyacetophenone]
[2]; [7]
  body weight change: the body weight changed little
  relative kidney weight: the relative kidney weight decreased
[2]; compound 100 mg/kg i.p. 30 minutes before cisplatin 20 mg/kg
  tumor size reduction by cisplatin when compound is co-administered: this effect did not change
[2]; compound plus cisplatin versus cisplatin alone
  renal uriniferous tubular damage score: reduces the renal uriniferous tubular damage score
[2]; [8]
  BUN concentration in serum: reduced the increase in the cisplatin-induced BUN and Cre in a dose dependent manner
  Cre concentration in serum: reduced the increase in the cisplatin-induced BUN and Cre in a dose dependent manner
Recombinant human CCBL1
  inhibitory activity to CCBL1 β elimination activity: inhibited by the compound X in a concentration dependent manner
[1]; both cisplatin (20 mg/kg i.p.) and compound administered
  relative kidney weight: did not increase the relative kidney weight
[1]
  BUN level in serum: reduces the Cre and BUN levels in a dose dependent manner
  Cre level in serum: reduces the Cre and BUN levels in a dose dependent manner
[1]; [9]
  BAX level in kidney (immunoblotting): decreased
  Cleaved Caspase-3 level in kidney (immunoblotting): decreased
[1]; compound plus cisplatin
  cisplatin-induced renal tubular cell death (histopathological observation, PAS stain): suppresses the cisplatin-induced renal tubular cell death in a dose dependent manner
[1]; group of cisplatin and compound versus only cisplatin
  tubular injury score: lower tubular injury scores than the group of only cisplatin
[3]; cisplatin 0 μM
  LLC-PK1 cell death (cell viability) without cisplatin: did not affect the LLC-PK1 cell death
[3]; cisplatin 50 μM
  cisplatin-induced renal tubular cell death (cell viability): prevented the cisplatin-induced renal tubular cell death in a dose dependent manner
Recombinant CCBL1 (KAT1)
  inhibition at 10 µM: 88.6%
[4]
  cisplatin-induced tumor cell death (cell viability): did not affect the cisplatin-induced tumor cell death
[5]
  cisplatin-induced tumor cell death (cell viability): did not affect the cisplatin-induced tumor cell death
[6]
  BUN level in serum, compound administered alone: no change in the Cre and BUN levels was found
  Cre level in serum, compound administered alone: no change in the Cre and BUN levels was found
  injury of renal uriniferous tubular cells, compound alone (histopathology): does not injure renal uriniferous tubular cells

## COc1cc(O)c(C(C)=O)c(O)c1 [4-O-METHYLPHLORACETOPHENONE, 4-O-methylphloracetophenone, reference compound]
Recombinant CCBL1 (KAT1)
  inhibition at 10 µM: 5.6%
  CCBL1 (KAT1) inhibitory activity, in words: exhibits little CCBL1 inhibitory activity

## N.N.[Cl][Pt][Cl] [cisplatin]
[2]; cisplatin 20 mg/kg i.p.
  tumor size, cisplatin: reduced the tumor size
[2]; [10]
  body weight, cisplatin alone: reduced the body weight
  relative kidney weight, cisplatin alone: increased the relative kidney weight
[1]; cisplatin 20 mg/kg i.p. alone
  BUN level in serum, cisplatin alone: increased the Cre and BUN levels
  Cre level in serum, cisplatin alone: increased the Cre and BUN levels
  body weight, cisplatin alone: reduced the body weight
  relative kidney weight, cisplatin alone: increased the relative kidney weight
